≈ marks a conversion by molar mass, not a printed value. A value given as a limit tells only on which side of the number the result lay.

This is an account of results in paper PMC11013945, “Antiprotozoal Activity of Plants Used in the Management of Sleeping Sickness in Angola and Bioactivity-Guided Fractionation of Brasenia schreberi J.F.Gmel and Nymphaea lotus L. Active against T. b. rhodesiense” (Molecules, 2024).

One test concerns leishmania. The arrangement: method as in PMID 16643059. The conditions noted are these: cited from earlier work.
The test system of a further test is L6 cells. Briefly: Cytotoxicity against L6 cells. In kind it is cell-based. The conditions noted are these: Rattus norvegicus, Table 4, pure compounds. The protocol: (§1) In vitro growth inhibitory activity of the extracts and pure compounds against T. cruzi (intracellular amastigote forms grown in L6 rat myoblasts), L. donovani (axenic amastigote forms in acidic medium or intracellular amastigotes in mouse primary macrophages), and P. falciparum (erythrocytic stages in culture) was determined as described previously. Testing against intracellular L. donovani was performed as follows: mouse peritoneal macrophages (4 × 104 in 100 µL RPMI 1640 medium with 10% heat-inactivated FBS) in 96-well plates were infected with amastigotes (2 × 105 in 100 µL medium). After 24 h, the medium was exchanged twice to remove free amastigotes. Test compounds were added, and the plates incubated for 96 h at 37 °C under 5% CO2. Then, the medium was removed, the cells were fixed with 50 µL 4% formaldehyde, and stained with 5 µM DRAQ5. Nine images were taken per well on a ImageXpress XLS (MD) microscope (Molecular Devices, San Jose, CA, USA) using a 20× air objective (635 nm excitation: 690/50 emission) and analyzed with a script developed on Meta Xpress (MD). Cytotoxicity against L6 cells was assessed by using a similar protocol as outlined for IC50 determination with T. b. rhodesiense, except that rat skeletal myoblasts (L6 cells) were used. The medium was RPMI 1640 medium supplemented with 1% L-glutamine (200 mM) and 10% fetal bovine serum. Reference compounds were melarsoprol for T. b. rhodesiense, benznidazole for T. cruzi, miltefosine for L. donovani, chloroquine and artesunate for P. falciparum, and podophyllotoxin for L6 cells.

A further test has as its system T. cruzi. Description: In vitro growth inhibition of T. cruzi intracellular amastigotes grown in L6 rat myoblasts. In kind it is cell-based, Trypanosoma cruzi. The conditions noted are these: Table 4, pure compounds; for IC50: Trypanosoma cruzi, Myoblast, mean of two independent experiments. The procedure: as §1
In test [1] the test system is P. falciparum. Briefly: In vitro growth inhibition of P. falciparum erythrocytic stages. In kind it is cell-based, Plasmodium falciparum. The note with it: Table 4, pure compounds; for IC50: Plasmodium falciparum. The protocol:
as §1

The subject of a further test is epimastigote T. cruzi. The arrangement: method as in PMID 27347554. The conditions noted are these: read-out: IC50 against epimastigote T. cruzi; cited from earlier work.
The subject of test [2] is T. b. rhodesiense STIB 900. Briefly: IC50 determination against T. b. rhodesiense, serial dilutions, Alamar blue. In kind it is cell-based, Trypanosoma brucei rhodesiense. The conditions noted are these: Table 4, pure compounds; for IC50: Trypanosoma brucei. Background: Resazurin is reduced to fluorescent resorufin, in cell work by metabolically active cells.
The next test concerns L. donovani. Description: In vitro growth inhibition of L. donovani axenic amastigotes. In kind it is cell-based, Leishmania donovani. The note with it: Table 4, pure compounds; for IC50: Leishmania donovani, axenic amastigote. The procedure: as §1
Test [3] concerns P. falciparum. The arrangement: method as in PMID 29333044. The conditions noted are these: isolated from Alectryon serratus leaves; cited from earlier work.
For test [4], the system named is sn-glycerol-3-phosphate oxidase system of T. b. brucei. The note with it: in vitro; cited from earlier work.
The test system of test [5] is intracellular L. donovani. Briefly: Intramacrophage assay, intracellular L. donovani amastigotes in mouse peritoneal macrophages. The format is cell-based. The conditions noted are these: Leishmania donovani, Macrophage. The procedure:
as §1, with “Reference compounds were melarsoprol for T. b. rhodesiense, benznidazole for T. cruzi, miltefosine for L. donovani, chloroquine and artesunate for P. falciparum, and podophyllotoxin for L6 cells.” left out

For test [6], the system named is Trypanosoma brucei rhodesiense STIB900. Briefly: Growth inhibition (GI) of T. b. rhodesiense bloodstream forms at a single concentration, Alamar blue. In kind it is cell-based. The conditions noted are these: read-out: Growth inhibition (%). The protocol: A total of 122 extracts were prepared from different parts of the nine plant species. Each plant part was extracted consecutively with hexane, dichloromethane, ethanol, methanol, and water. The extracts were tested for their in vitro growth inhibition (GI) activity against bloodstream forms of Trypanosoma brucei rhodesiense STIB900, our reference strain for drug testing against African trypanosomes at a concentration of 20 µg/mL. […] A detailed description of the plant species, the parts extracted, solvent, extraction yield, and percentage of growth inhibition (GI%) is given in Supplementary Table S1.
Growth inhibition (GI) activity against T. b. rhodesiense STIB 900 was determined as follows: in a 96-well microtiter plate, 50 µL of HMI-9 medium supplemented with 15% heat-inactivated horse serum were added to each well. A total of 10 µL of the plant extract stock solution was added to each well. Then, 50 µL of bloodstream-form trypanosomes were added, adjusted with a cell counter (CASY, Schärfe System, Germany) to 4 × 10^4 cells/mL. […] Then, the plate was read with a Spectramax Gemini XS microplate fluorometer (Molecular Devices Corporation, Sunnyvale, CA, USA) using an excitation wavelength of 530 nm and an emission wavelength of 590 nm. Fluorescence was expressed as percentage of the untreated control. […]

The mark [7] stands for this setting: mean of two independent experiments.

On to `C=CCCC/C=C\C/C=C\CCCCCCCc1cc(O)cc(O)c1` [5-heptadeca-8′Z,11′Z,16-trienylresorcinol], for which the IC50 against leishmania in the test with leishmania is recorded as 3.6 µg/mL (≈ 10.5 µM).

Broadly, the IC50 is the concentration needed to halve the response being measured. `CCOC(=O)c1cc(O)c(O)c(O)c1` [Ethyl gallate (4), ethyl gallate] had an IC50 in the test with L6 cells of 15 µg/mL (≈ 75.7 µM). In the test with T. cruzi, the “T. cruzi SI” value is given as 0.9 and half-maximal inhibition (IC50) required 16 µg/mL (≈ 80.7 µM). Besides, in the test with P. falciparum [1], the IC50 was determined as 2.1 µg/mL (≈ 10.6 µM), the “P. falciparum IC50” value is listed as 3.0 µg/mL and the “P. falciparum SI” value amounted to 4.9. The IC50 with epimastigote T. cruzi is greater than 100 µM. Further, the “T. b. rhodesiense SI” value in test [2] is 25. In test [2] (setting [7]), the “T. b. rhodesiense IC50” value worked out at 0.6 µg/mL and the IC50 turned out to be 0.5 µg/mL (≈ 2.52 µM). Also, in the test with L. donovani, the IC50 was found to be 6.8 µg/mL (≈ 34.3 µM) and the “L. donovani SI” value is on record as 2.2.

Take `O=C(O)c1cc(O)c(O)c(O)c1` [Gallic acid (1), gallic acid]: the IC50 in the test on L6 cells is 16 µg/mL (≈ 94.1 µM); in the test with T. cruzi, 66 µg/mL (≈ 388 µM); in the test with P. falciparum [1] it was greater than 10 µg/mL; in the test with epimastigote T. cruzi it was greater than 100 µM; in test [2] (setting [7]), 0.5 µg/mL (≈ 2.94 µM); in the test with L. donovani, 56 µg/mL (≈ 329 µM). For the same molecule, the “T. cruzi SI” value in the test with T. cruzi is listed as 0.2. In addition, the “T. b. rhodesiense SI” value in test [2] came to 34. Further, the “IC50 against P. falciparum” value in the test on P. falciparum [3] was 0.0013 µg/mL (≈ 0.00764 µM). In addition, the “L. donovani SI” value in the test on L. donovani amounted to 0.3. Further, the “inhibition of sn-glycerol-3-phosphate oxidase system” value in test [4] is “inhibited”.

For the molecule `O=c1c(O)c(-c2ccc(O)c(O)c2)oc2c(O)c(O[C@@H]3O[C@H](CO)[C@@H](O)[C@H](O)[C@H]3O)cc(O)c12` [Gossypetin-7-O-β-glucopyranoside (6), gossypetin-7-O-β-glucopyranoside], the IC50 with L6 cells was 8.9 µg/mL (≈ 18.5 µM); in the test on T. cruzi, 12 µg/mL (≈ 25 µM); in test [2] (setting [7]), 5.5 µg/mL (≈ 11.4 µM); in the test on L. donovani, 53 µg/mL (≈ 110 µM). In the test with T. cruzi, the “T. cruzi SI” value amounted to 0.8. Moreover, in test [2], the “T. b. rhodesiense SI” value was 1.6. Moreover, the “L. donovani SI” value in the test with L. donovani amounted to 0.2.

Regarding `O=c1cc(-c2ccc(O)c(O)c2)oc2c(O)c(O[C@@H]3O[C@H](CO)[C@@H](O)[C@H](O)[C@H]3O)cc(O)c12` [Hypolaetin-7-O-glucoside (7), hypolaetin-7-O-glucoside], the IC50 in the test on L6 cells is 19 µg/mL (≈ 40.9 µM); with T. cruzi it was 49 µg/mL (≈ 106 µM); in test [2] (setting [7]), 5.7 µg/mL (≈ 12.3 µM); in the test on L. donovani, 52 µg/mL (≈ 112 µM). For the same molecule, in the test with T. cruzi, the “T. cruzi SI” value came to 0.4. The “T. b. rhodesiense SI” value in [2] turned out to be 3.2. In addition, the “L. donovani SI” value in the test with L. donovani is 0.4.

Take `COC(=O)c1cc(O)c(O)c(O)c1` [Methyl gallate (2), methyl gallate]: the IC50 in the test with L6 cells is 16 µg/mL (≈ 86.9 µM); in the test on T. cruzi it was 16 µg/mL (≈ 86.9 µM); with P. falciparum [1], 3 µg/mL (≈ 16.3 µM); in the test with epimastigote T. cruzi, greater than 100 µM; in test [2] (setting [7]) it was 1.1 µg/mL (≈ 5.97 µM); in the test with L. donovani, 8.5 µg/mL (≈ 46.2 µM). Also, in the test with T. cruzi, the “T. cruzi SI” value is 1.0. The “P. falciparum IC50” value in the test on P. falciparum [1] is 2.1 µg/mL. The “P. falciparum SI” value in the test with P. falciparum [1] is listed as 7.8. Further, the “T. b. rhodesiense SI” value in test [2] came out at 15. Besides, the “IC50 against P. falciparum” value with P. falciparum [3] was 0.0025 µg/mL (≈ 0.0136 µM). Moreover, the “L. donovani SI” value with L. donovani was 1.9. In addition, the “inhibition of sn-glycerol-3-phosphate oxidase system” value in test [4] is “inhibited”.

For the molecule `O=C(OC[C@@H]1O[C@H](OC(=O)c2cc(O)c(O)c(O)c2)[C@@H](OC(=O)c2cc(O)c(O)c(O)c2)[C@H](OC(=O)c2cc(O)c(O)c(O)c2)[C@H]1OC(=O)c1cc(O)c(O)c(O)c1)c1cc(O)c(O)c(O)c1` [Pentagalloyl-β-glucopyranoside (5), 1,2,3,4,6 pentagalloyl-β-glucopyranoside], the IC50 with L6 cells came out at 21 µg/mL (≈ 22.3 µM); in the test on T. cruzi, 44 µg/mL (≈ 46.8 µM); in the test on P. falciparum [1], 6.7 µg/mL (≈ 7.12 µM); in test [2] (setting [7]), 20 µg/mL (≈ 21.3 µM); in the test with L. donovani, 15 µg/mL (≈ 15.9 µM). The “T. cruzi SI” value with T. cruzi is given as 0.5. Further, the “P. falciparum SI” value with P. falciparum [1] is on record as 3.1. In test [2], the “T. b. rhodesiense SI” value is listed as 1.0. Besides, the “L. donovani SI” value in the test on L. donovani is 1.4.

As to `CC/C=C\C/C=C\C/C=C\CCCCCCCc1cc(O)cc(O)c1` [Resorcinol-alkyl (8), 5-[(8Z,11Z,14Z)-heptadeca-8,11,14-trienyl] resorcinol], the IC50 was 13 µg/mL (≈ 38 µM) in the test on L6 cells; 9.1 µg/mL (≈ 26.6 µM) with T. cruzi; 5.3 µg/mL (≈ 15.5 µM) in [2] (setting [7]); greater than 11 µg/mL in test [5]; 2.5 µg/mL (≈ 7.3 µM) in the test on L. donovani. The “T. cruzi SI” value in the test with T. cruzi is on record as 1.4. Further, in [2], the “T. b. rhodesiense SI” value turned out to be 2.5. Besides, the “L. donovani SI” value in the test on L. donovani came out at 5.2.

A word on the inhibition: it is the share of the control response that was lost under treatment. Consider `Nc1nc(N)nc(Nc2ccc([As]3SCC(CO)S3)cc2)n1` (stereo not drawn) [melarsoprol], for which the inhibition at 0.072 µg/mL in test [6] turned out to be 98.4%.
